The results in this text go back to PMC5218480 (PLoS ONE, 2017).

The assay has as its system MV-4-11 cells. Nature of the assay: Gene expression microarray analysis (Affymetrix PrimeView) and GSEA. To be noted: ProbeSet 11716331_a_at; LIST D. More on the design: RFU PODN (11730768_x_at) / Fold change /veh PODN (11730768_x_at) / RFU LINC00158 (11744669_a_at) / Fold change /veh LINC00158 (11744669_a_at) / RFU DUSP10 (11751237_a_at) / Fold change /veh DUSP10 (11751237_a_at) / RFU ID3 (11757404_x_at) / Fold change /veh ID3 (11757404_x_at) / RFU PLEKHG5 (11737974_s_at) / Fold change /veh PLEKHG5 (11737974_s_at) / RFU LRRC4B (11730491_at) / Fold change /veh LRRC4B (11730491_at) / RFU GIMAP4 (11747438_a_at) / Fold change /veh GIMAP4 (11747438_a_at) / RFU KRT8 (11758183_x_at) / Fold change /veh KRT8 (11758183_x_at) / RFU CNN1 (11734310_a_at) / Fold change /veh CNN1 (11734310_a_at) / RFU VPS37D (11726825_at) / Fold change /veh VPS37D (11726825_at) / RFU C10orf10 (11716522_x_at) / Fold change /veh C10orf10 (11716522_x_at) / RFU KIR2DL2 /// KIR2DL4 /// KIR2DL5A /// KIR2DL5B /// KIR2DS1 /// KIR2DS2 /// KIR2DS3 /// KIR2DS4 /// KIR3DL3 /// KIR3DL3 /// KIR3DS1 (11738374_at) / Fold change /veh KIR2DL2 /// KIR2DL4 /// KIR2DL5A /// KIR2DL5B /// KIR2DS1 /// KIR2DS2 /// KIR2DS3 /// KIR2DS4 /// KIR3DL3 /// KIR3DL3 /// KIR3DS1 (11738374_at) / RFU C1QL1 (11718748_at) / Fold change /veh C1QL1 (11718748_at) / RFU TMPRSS4 (11747572_a_at) / Fold change /veh TMPRSS4 (11747572_a_at) / RFU HAMP (11756126_x_at) / Fold change /veh HAMP (11756126_x_at) / RFU RNFT2 (11725882_a_at) / Fold change /veh RNFT2 (11725882_a_at) / RFU NR4A2 (11747474_a_at) / Fold change /veh NR4A2 (11747474_a_at) / RFU ABCC12 (11746883_a_at) / Fold change /veh ABCC12 (11746883_a_at) / RFU TMEM136 (11760407_x_at) / Fold change /veh TMEM136 (11760407_x_at) / RFU CLDN22 /// WWC2 (11732394_at) / Fold change /veh CLDN22 /// WWC2 (11732394_at) / RFU HLA-DPB1 (11760878_x_at) / Fold change /veh HLA-DPB1 (11760878_x_at) / RFU SPINT1 (11716480_a_at) / Fold change /veh SPINT1 (11716480_a_at) / RFU GAP43 (11754022_s_at) / Fold change /veh GAP43 (11754022_s_at) / RFU A4GNT (11735810_at) / Fold change /veh A4GNT (11735810_at) / RFU PRB3 (11715151_x_at) / Fold change /veh PRB3 (11715151_x_at) / RFU TUBB4B (11761932_at) / Fold change /veh TUBB4B (11761932_at) / RFU CAPN14 (11732068_a_at) / Fold change /veh CAPN14 (11732068_a_at) / RFU TMCC2 (11721928_a_at) / Fold change /veh TMCC2 (11721928_a_at) / RFU IRGQ (11745062_a_at) / Fold change /veh IRGQ (11745062_a_at) / RFU FAM174B (11720279_a_at) / Fold change /veh FAM174B (11720279_a_at) / RFU TMPRSS4 (11748680_a_at) / Fold change /veh TMPRSS4 (11748680_a_at) / RFU FAM212B (11763350_a_at) / Fold change /veh FAM212B (11763350_a_at) / RFU PLEKHG5 (11743358_a_at) / Fold change /veh PLEKHG5 (11743358_a_at) / RFU ZSCAN30 (11745921_a_at) / Fold change /veh ZSCAN30 (11745921_a_at) / RFU CMKLR1 (11741424_a_at) / Fold change /veh CMKLR1 (11741424_a_at) / RFU LOC101060620 /// MAPK8IP1 (11723275_at) / Fold change /veh LOC101060620 /// MAPK8IP1 (11723275_at) / RFU SPTSSB (11747773_x_at) / Fold change /veh SPTSSB (11747773_x_at) / RFU PRSS12 (11739890_at) / Fold change /veh PRSS12 (11739890_at) / RFU BIN1 (11741810_x_at) / Fold change /veh BIN1 (11741810_x_at) / RFU WNT11 (11732464_a_at) / Fold change /veh WNT11 (11732464_a_at) / RFU C10orf10 (11716521_a_at) / Fold change /veh C10orf10 (11716521_a_at) / RFU C5orf56 (11738089_at) / Fold change /veh C5orf56 (11738089_at) / RFU CYB561 (11721691_x_at) / Fold change /veh CYB561 (11721691_x_at) / RFU ANKRD19P (11752326_a_at) / Fold change /veh ANKRD19P (11752326_a_at) / RFU OR2T12 /// OR2T33 /// OR2T8 (11738714_s_at) / Fold change /veh OR2T12 /// OR2T33 /// OR2T8 (11738714_s_at) / RFU VCAN (11748164_a_at) / Fold change /veh VCAN (11748164_a_at) / RFU JSRP1 (11732532_at) / Fold change /veh JSRP1 (11732532_at) / RFU KRTAP10-11 (11738290_x_at) / Fold change /veh KRTAP10-11 (11738290_x_at) / RFU MYO3A (11730013_a_at) / Fold change /veh MYO3A (11730013_a_at) / RFU EBF3 (11725865_a_at) / Fold change /veh EBF3 (11725865_a_at) / RFU CAMK2N1 (11719241_x_at) / Fold change /veh CAMK2N1 (11719241_x_at) / RFU C5orf56 (11738088_a_at) / Fold change /veh C5orf56 (11738088_a_at) / RFU OLFML3 (11715873_a_at) / Fold change /veh OLFML3 (11715873_a_at) / RFU LOC100653217 /// NTM (11731650_a_at) / Fold change /veh LOC100653217 /// NTM (11731650_a_at) / RFU MAPK11 (11762145_a_at) / Fold change /veh MAPK11 (11762145_a_at) / RFU FIZ1 (11724087_x_at) / Fold change /veh FIZ1 (11724087_x_at) / RFU OASL (11726364_x_at) / Fold change /veh OASL (11726364_x_at) / RFU SOX15 (11748057_x_at) / Fold change /veh SOX15 (11748057_x_at) / RFU CD79A (11719716_a_at) / Fold change /veh CD79A (11719716_a_at) / RFU HIST1H1D (11736915_at) / Fold change /veh HIST1H1D (11736915_at) / RFU CASKIN2 (11723855_a_at) / Fold change /veh CASKIN2 (11723855_a_at) / RFU LOC730098 (11760151_x_at) / Fold change /veh LOC730098 (11760151_x_at) / RFU OR4N2 (11742367_at) / Fold change /veh OR4N2 (11742367_at) / RFU PRRT2 (11749266_a_at) / Fold change /veh PRRT2 (11749266_a_at) / RFU SNX32 (11753110_a_at) / Fold change /veh SNX32 (11753110_a_at) / RFU CDHR5 (11726645_a_at) / Fold change /veh CDHR5 (11726645_a_at) / RFU RCAN1 (11760418_a_at) / Fold change /veh RCAN1 (11760418_a_at) / RFU FAM167A (11723789_a_at) / Fold change /veh FAM167A (11723789_a_at) / RFU FAM26E (11764081_at) / Fold change /veh FAM26E (11764081_at) / RFU ISYNA1 (11749810_s_at) / Fold change /veh ISYNA1 (11749810_s_at) / RFU ACY1 (11761880_at) / Fold change /veh ACY1 (11761880_at) / RFU 11764098_at / Fold change /veh 11764098_at / RFU SAMD14 (11745864_x_at) / Fold change /veh SAMD14 (11745864_x_at) / RFU NPB (11741838_a_at) / Fold change /veh NPB (11741838_a_at) / RFU TMPRSS6 (11731388_a_at) / Fold change /veh TMPRSS6 (11731388_a_at) / RFU KRTAP10-2 (11738614_at) / Fold change /veh KRTAP10-2 (11738614_at) / RFU ARHGAP8 /// PRR5-ARHGAP8 (11727945_x_at) / Fold change /veh ARHGAP8 /// PRR5-ARHGAP8 (11727945_x_at) / RFU KRTAP5-7 /// NADSYN1 (11734609_at) / Fold change /veh KRTAP5-7 /// NADSYN1 (11734609_at) / RFU RASL12 (11751679_a_at) / Fold change /veh RASL12 (11751679_a_at) / RFU CDKN2B (11736163_a_at) / Fold change /veh CDKN2B (11736163_a_at) / RFU PRF1 (11729649_at) / Fold change /veh PRF1 (11729649_at) / RFU, ZNF638 /// ZNF638-IT1 / Fold change vs veh, ZNF638 /// ZNF638-IT1 / RFU, PANK3 / Fold change vs veh, PANK3 / RFU, SH3YL1 / Fold change vs veh, SH3YL1 / RFU, ZEB2 / Fold change vs veh, ZEB2 / RFU, NRIP1 / Fold change vs veh, NRIP1 / RFU, PTTG1IP / Fold change vs veh, PTTG1IP / RFU, CAPN2 / Fold change vs veh, CAPN2 / RFU, MED14 / Fold change vs veh, MED14 / RFU, SNORA58 / Fold change vs veh, SNORA58 / RFU, C1orf63 / Fold change vs veh, C1orf63 / RFU, LRRFIP1 / Fold change vs veh, LRRFIP1 / RFU, NDUFAF7 / Fold change vs veh, NDUFAF7 / RFU, SLC12A2 / Fold change vs veh, SLC12A2 / RFU, IBTK / Fold change vs veh, IBTK / RFU, ESF1 / Fold change vs veh, ESF1 / Fold change vs veh, TMEM50B / RFU, TAOK1 / Fold change vs veh, TAOK1 / RFU, ACBD3 / Fold change vs veh, ACBD3 / RFU, TMA16 / Fold change vs veh, TMA16 / RFU, RWDD3 / Fold change vs veh, RWDD3 / RFU, BCAT1 / Fold change vs veh, BCAT1 / RFU, EDEM3 / Fold change vs veh, EDEM3 / RFU, TMEM33 / Fold change vs veh, TMEM33 / RFU, WDR75 / Fold change vs veh, WDR75 / RFU, AHCTF1 / Fold change vs veh, AHCTF1 / RFU, TFRC / Fold change vs veh, TFRC / RFU, ZDHHC17 / Fold change vs veh, ZDHHC17 / RFU, NOM1 / Fold change vs veh, NOM1 / RFU, ARL8B / Fold change vs veh, ARL8B / RFU, ZBTB11 / Fold change vs veh, ZBTB11 / RFU, TAMM41 / Fold change vs veh, TAMM41 / RFU, KIAA1704 /// LOC100996395 / Fold change vs veh, KIAA1704 /// LOC100996395 / RFU, ING1 / Fold change vs veh, ING1 / RFU, TRMT61B / Fold change vs veh, TRMT61B / RFU, FUBP3 / Fold change vs veh, FUBP3 / RFU, TP53 / Fold change vs veh, TP53 / RFU, TNKS2 / Fold change vs veh, TNKS2 / RFU, ZFP14 / Fold change vs veh, ZFP14 / RFU, ACTR2 / Fold change vs veh, ACTR2 / RFU, PPP3R1 / Fold change vs veh, PPP3R1 / RFU, PIK3R1 / Fold change vs veh, PIK3R1 / RFU, HNRNPA1 / Fold change vs veh, HNRNPA1 / RFU, RNF170 / Fold change vs veh, RNF170 / RFU, ZNF28 / Fold change vs veh, ZNF28 / RFU, RNGTT / Fold change vs veh, RNGTT / RFU, OGT / Fold change vs veh, OGT / RFU, BRD1 / Fold change vs veh, BRD1 / RFU, MARS / Fold change vs veh, MARS / RFU, ZNF655 / Fold change vs veh, ZNF655 / RFU, FAHD1 / Fold change vs veh, FAHD1 / RFU, BDP1 / Fold change vs veh, BDP1 / RFU, LRRCC1 / Fold change vs veh, LRRCC1 / RFU, ARID1A / Fold change vs veh, ARID1A / RFU, ZNF146 / Fold change vs veh, ZNF146 / RFU, ZNF330 / Fold change vs veh, ZNF330 / RFU, GPN3 / Fold change vs veh, GPN3 / RFU, C9orf123 / Fold change vs veh, C9orf123 / RFU, N4BP2L2 / Fold change vs veh, N4BP2L2 / RFU, ARFIP1 / Fold change vs veh, ARFIP1 / RFU, FAM179B / Fold change vs veh, FAM179B / RFU, BCL10 / Fold change vs veh, BCL10 / RFU, UHRF1BP1L / Fold change vs veh, UHRF1BP1L / RFU, BET1 / Fold change vs veh, BET1 / RFU, CNOT2 / Fold change vs veh, CNOT2 / RFU, ZNF268 / Fold change vs veh, ZNF268 / Fold change vs veh, ZNF507 / RFU, DGCR2 / Fold change vs veh, DGCR2 / RFU, WDSUB1 / Fold change vs veh, WDSUB1 / Fold change vs veh, HSP90B1 /// MIR3652 / RFU, ADSS / Fold change vs veh, ADSS / RFU, GK / Fold change vs veh, GK / RFU, ZNF148 / Fold change vs veh, ZNF148 / RFU, TAF9 / Fold change vs veh, TAF9 / RFU, SLC1A5 / Fold change vs veh, SLC1A5 / RFU, SLMO2 / Fold change vs veh, SLMO2 / RFU, ABCC4 / Fold change vs veh, ABCC4 / RFU, LOC101060439 /// RAP1B / Fold change vs veh, LOC101060439 /// RAP1B / RFU, RFX7 / Fold change vs veh, RFX7 / RFU, GTPBP10 / Fold change vs veh, GTPBP10 / RFU, CNEP1R1 / Fold change vs veh, CNEP1R1 / RFU, BIVM-ERCC5 /// ERCC5 / Fold change vs veh, BIVM-ERCC5 /// ERCC5 / RFU, ILF3 / Fold change vs veh, ILF3 / RFU 11762660_at / Fold change /veh 11762660_at / RFU VCAN (11757783_s_at) / Fold change /veh VCAN (11757783_s_at) / RFU DDX43 (11728927_at) / Fold change /veh DDX43 (11728927_at) / RFU KRT8 (11758188_x_at) / Fold change /veh KRT8 (11758188_x_at) / RFU NKD1 (11759106_at) / Fold change /veh NKD1 (11759106_at) / RFU SRD5A1 (11742802_a_at) / Fold change /veh SRD5A1 (11742802_a_at) / RFU TPSAB1 /// TPSB2 (11721975_s_at) / Fold change /veh TPSAB1 /// TPSB2 (11721975_s_at) / RFU GSTM3 (11746129_a_at) / Fold change /veh GSTM3 (11746129_a_at) / RFU IL23R (11737362_x_at) / Fold change /veh IL23R (11737362_x_at) / RFU TMEM51 (11727254_a_at) / Fold change /veh TMEM51 (11727254_a_at) / RFU PIWIL2 (11732686_x_at) / Fold change /veh PIWIL2 (11732686_x_at) / RFU ORM1 (11744905_x_at) / Fold change /veh ORM1 (11744905_x_at) / RFU CCDC152 (11743942_at) / Fold change /veh CCDC152 (11743942_at) / RFU ECM1 (11717891_a_at) / Fold change /veh ECM1 (11717891_a_at) / RFU IL23R (11748794_a_at) / Fold change /veh IL23R (11748794_a_at) / RFU TNFAIP8L3 (11732012_x_at) / Fold change /veh TNFAIP8L3 (11732012_x_at) / RFU MBOAT4 (11741988_at) / Fold change /veh MBOAT4 (11741988_at) / RFU 11764193_at / Fold change /veh 11764193_at / RFU TMEM53 (11763286_at) / Fold change /veh TMEM53 (11763286_at) / RFU MAGEB2 (11727129_at) / Fold change /veh MAGEB2 (11727129_at) / RFU TMEM200A (11744735_a_at) / Fold change /veh TMEM200A (11744735_a_at) / RFU CCDC152 (11751479_a_at) / Fold change /veh CCDC152 (11751479_a_at) / RFU FAM211A (11726209_a_at) / Fold change /veh FAM211A (11726209_a_at) / RFU RGS16 (11746705_a_at) / Fold change /veh RGS16 (11746705_a_at) / RFU VCAN (11755009_s_at) / Fold change /veh VCAN (11755009_s_at) / RFU RHOB (11743442_s_at) / Fold change /veh RHOB (11743442_s_at) / RFU RGS16 (11720943_a_at) / Fold change /veh RGS16 (11720943_a_at) / RFU RGS16 (11720944_at) / Fold change /veh RGS16 (11720944_at) / RFU, VPS4B / Fold change vs veh, VPS4B / RFU, CREB1 / Fold change vs veh, CREB1 / RFU, DNAJC13 / Fold change vs veh, DNAJC13 / RFU, GNAQ / Fold change vs veh, GNAQ / RFU, CDK5R1 / Fold change vs veh, CDK5R1 / RFU, ZRANB3 / Fold change vs veh, ZRANB3 / RFU, CUL4A / Fold change vs veh, CUL4A / RFU, CCNY / Fold change vs veh, CCNY / RFU, UFL1 / Fold change vs veh, UFL1 / RFU, COG3 / Fold change vs veh, COG3 / RFU, DIAPH2 / Fold change vs veh, DIAPH2 / RFU, SKA2 / Fold change vs veh, SKA2 / RFU, AFF3 / Fold change vs veh, AFF3 / RFU, LMF1 / Fold change vs veh, LMF1 / RFU, IPO11 / Fold change vs veh, IPO11 / RFU, DFFB / Fold change vs veh, DFFB / RFU, FOXP1 / Fold change vs veh, FOXP1 / RFU, CARD8 / Fold change vs veh, CARD8 / RFU, STRN3 / Fold change vs veh, STRN3 / RFU, ADK / Fold change vs veh, ADK / RFU, RASSF2 / Fold change vs veh, RASSF2 / RFU, WIPF1 / Fold change vs veh, WIPF1 / RFU, LARP1B / Fold change vs veh, LARP1B / RFU, RASA1 / Fold change vs veh, RASA1 / RFU, RB1 / Fold change vs veh, RB1 / RFU, PPFIA1 / Fold change vs veh, PPFIA1 / RFU, MAT2A / Fold change vs veh, MAT2A / RFU, CCT5 / Fold change vs veh, CCT5 / RFU, WDR92 / Fold change vs veh, WDR92 / RFU, CUX1 / Fold change vs veh, CUX1 / RFU, TTC7A / Fold change vs veh, TTC7A / RFU, TMEM135 / Fold change vs veh, TMEM135 / RFU, DEPTOR / Fold change vs veh, DEPTOR / RFU, CPM / Fold change vs veh, CPM / RFU, DNAJB6 / Fold change vs veh, DNAJB6 / RFU, CACNA2D3 / Fold change vs veh, CACNA2D3 / RFU, DTX4 / Fold change vs veh, DTX4 / RFU, TFCP2 / Fold change vs veh, TFCP2 / RFU, GMCL1 /// GMCL1P1 / Fold change vs veh, GMCL1 /// GMCL1P1 / RFU, AEBP2 / Fold change vs veh, AEBP2 / RFU, SNHG1 /// SNORD22 /// SNORD25 /// SNORD26 /// SNORD27 /// SNORD28 /// SNORD29 /// SNORD31 / Fold change vs veh, SNHG1 /// SNORD22 /// SNORD25 /// SNORD26 /// SNORD27 /// SNORD28 /// SNORD29 /// SNORD31 / Fold change (Aza/veh), C12orf56 (ProbeSet 11735607_a_at) / Fold change (ACY-1035/veh), C12orf56 (ProbeSet 11735607_a_at) / Fold change (Aza/veh), FGFR1OP (ProbeSet 11751329_s_at) / Fold change (ACY-1035/veh), FGFR1OP (ProbeSet 11751329_s_at) / Fold change (Aza/veh), VPS36 (ProbeSet 11739960_a_at) / Fold change (ACY-1035/veh), VPS36 (ProbeSet 11739960_a_at) / RFU SYPL1 (11715823_x_at) / Fold change /veh SYPL1 (11715823_x_at) / RFU IGFBP7 (11715501_s_at) / Fold change /veh IGFBP7 (11715501_s_at) / RFU REEP3 (11722064_at) / Fold change /veh REEP3 (11722064_at) / RFU IGLL1 (11728026_x_at) / Fold change /veh IGLL1 (11728026_x_at): dose or concentration left out as unconfirmed. Type of assay: cell-based, human.

For `Nc1ccc(-c2cccs2)cc1NC(=O)c1ccc2c(c1)cc(C1CC1)n2CCN1CCOCC1` [ACY-1035], the “Fold change vs veh, DNAJB6” value is listed as 0.86.
